Measured values from PubChem BioAssay AID1963833 (Molecular Pharmacology Branch, DTP, NCI, 2024).

System: 883617-216-R-J1-PDC complex spheroid viability
Assay: Anticancer human tumor 883617-216-R-J1-PDC patient-derived bladder carcinoma cell line growth inhibition [POLQ]
Settings: for IC50: curve of first compound; for viability, T/C: stronger effect = lower value
Protocol: Multicellular complex tumor spheroid response to Polymerase (POL) inhibitors (novobiocin, ART-558, RP6685) in combination with a variety of drugs and investigational agents in selected tumor cell lines
The POL inhibitors (novobiocin, ART-558, and RP6685) were evaluated both individually and in combination with standard of care and investigational anticancer small molecules within a complex spheroid model of solid tumors. . Complex spheroids include a stromal component modeled by human endothelial cells (HUVEC) and fibroblasts modeled by human mesenchymal stem cells (MSCs). The concentration ranges selected for each drug and investigational agent were based upon clinically achievable concentrations if the clinical Cmax of the agent was known.
Compounds. The drugs and investigational agents: novobiocin (NSC847541), ART-558 (NSC835418), RP-6685 (NSC848927), peposertib (NSC802822), ceralasertib (NSC780249), elimusertib (NSC800525), camonsertib (NSC841442), AZD-1390 (NSC803789), olaparib (NSC753686), talazoparib (NSC767125), rucaparib (NSC756644), sotorasib (NSC818433), MRTX-1133 (NSC836407), SN-38 (NSC673596), topotecan (NSC609699), epotoside (NSC141540), doxorubicin (NSC123127), gemcitabine (NSC613327), 5-fluorouracil (NSC19893), paclitaxel (NSC125973), vemurafenib (NSC761431), MSA-2 (NSC828583), SN-011 (NSC837082), adavosertib (NSC754352), prexasertib (NSC758257), carboplatin (NSC241240) and oxaliplatin (NSC266046), were obtained from the National Cancer Institute (NCI) Developmental Therapeutics Program Chemical Repository (21). The FDA-approved anticancer drug set is available from the Developmental Therapeutics Program at https://dtp.cancer.gov/organization/dscb/obtaining/. […] The stock solutions were prepared in dimethyl sulfoxide (DMSO, Sigma-Aldrich, St. Louis, MO, cat. D2650), except for the platinum compounds which were prepared in saline (Quality Biological, Gaithersburg, MD, cat. 114-055-101), at 800-fold the tested concentration and stored at -70 degrees C prior to their use. All drugs and investigational agents were tested over a range starting from a high concentration at or near the clinical Cmax and decreasing in half-log increments. If the clinical Cmax for an agent had not been determined, the highest concentration tested was 10 microM, except for SN-38, which was tested at a high concentration of 1 microM.
Cell Culture. All cells were maintained in an incubator at 37 degrees C and 5% CO2 with 95% humidity. The PDC lines were cultured according to standard operating procedures established by the NCI PDMR (https://pdmr.cancer.gov). Table 3 of the manuscript, lists the cell lines along with the number of the three cell types plated to form the mct-spheroids and media for tumor cell growth. After thawing, all PDC lines, except 997537-175-T-J1-PDC and 415267-285-R-J2-PDC, were cultured in Matrigel-coated flasks prepared with a working solution of 1X Ham's F-12 nutrient mix, without supplementation (Thermo Fisher Scientific, cat. 11765054), 100 U/mL penicillin-streptomycin (Thermo Fisher Scientific, cat. 15140122), and 2.5% Matrigel (Corning Inc., Corning, NY, cat. 354248) for the first three passages. The two PDC lines 997537-175-T-J1-PDC and 415267-285-R-J2-PDC were cultured on uncoated flasks. The 857933-349-R-J2-PDC line was cultured in 6C/Colon 1B media containing advanced DMEM/F-12 (Thermo Fisher Scientific, cat. 12634028), 10 mM HEPES (Thermo Fisher Scientific, cat. 15630080), 1X GlutaMAX supplement (Thermo Fisher Scientific, cat. 35050061), 0.1 mg/mL primocin (InvivoGen, San Diego, CA, cat. ant-pm-2), 10% defined fetal bovine serum, heat inactivated (HyClone Laboratories Inc., Logan, UT, cat. SH30070.03HI), 50% L-WRN conditioned media (ATCC, cat. CRL-3276), 1.25 mM N-Acetyl-L-cysteine (Sigma-Aldrich, cat. A9165), 10 mM nicotinamide (Sigma-Aldrich, cat. N0636), 1X B-27 supplement (Thermo Fisher Scientific, cat. 17504044), 1X N-2 supplement (Thermo Fisher Scientific, cat. […]

[1] = second compound 0.0316 µM, first compound 0.0316 µM
[2] = second compound 0.0316 µM, first compound 0.1 µM
[3] = second compound 0.0316 µM, first compound 0.316 µM
[4] = second compound 0.0316 µM, first compound 1 µM
[5] = second compound 0.0316 µM, first compound 3.16 µM
[6] = second compound 0.0316 µM, first compound 10 µM
[7] = second compound 0.1 µM, first compound 0.0316 µM
[8] = second compound 0.1 µM, first compound 0.1 µM
[9] = second compound 0.1 µM, first compound 0.316 µM
[10] = second compound 0.1 µM, first compound 1 µM
[11] = second compound 0.1 µM, first compound 3.16 µM
[12] = second compound 0.1 µM, first compound 10 µM
[13] = second compound 0.316 µM, first compound 0.0316 µM
[14] = second compound 0.316 µM, first compound 0.1 µM
[15] = second compound 0.316 µM, first compound 0.316 µM
[16] = second compound 0.316 µM, first compound 1 µM
[17] = second compound 0.316 µM, first compound 3.16 µM
[18] = second compound 0.316 µM, first compound 10 µM
[19] = second compound 1 µM, first compound 0.0316 µM
[20] = second compound 1 µM, first compound 0.1 µM
[21] = second compound 1 µM, first compound 0.316 µM
[22] = second compound 1 µM, first compound 1 µM
[23] = second compound 1 µM, first compound 3.16 µM
[24] = second compound 1 µM, first compound 10 µM
[25] = second compound 3.16 µM, first compound 0.0316 µM
[26] = second compound 3.16 µM, first compound 0.1 µM
[27] = second compound 3.16 µM, first compound 0.316 µM
[28] = second compound 3.16 µM, first compound 1 µM
[29] = second compound 3.16 µM, first compound 3.16 µM
[30] = second compound 3.16 µM, first compound 10 µM
[31] = second compound 10 µM, first compound 0.0316 µM
[32] = second compound 10 µM, first compound 0.1 µM
[33] = second compound 10 µM, first compound 0.316 µM
[34] = second compound 10 µM, first compound 1 µM
[35] = second compound 10 µM, first compound 3.16 µM
[36] = second compound 10 µM, first compound 10 µM
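Further: spheroids exposed to compounds for seven days before readout.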
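Wherever viability, T/C is given: 100% = DMSO vehicle control viability.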

CNCc1ccc(-c2[nH]c3cc(F)cc4c3c2CCNC4=O)cc1 + COC1C(OC(N)=O)C(O)C(Oc2ccc3c(O)c(NC(=O)c4ccc(O)c(CC=C(C)C)c4)c(=O)oc3c2C)OC1(C)C
IC50 (second compound 0.0316 µM): > 10 µM
IC50 (second compound 0.1 µM): > 10 µM
IC50 (second compound 0.316 µM): > 10 µM
IC50 (second compound 1 µM): > 10 µM
IC50 (second compound 3.16 µM): > 10 µM
IC50 (second compound 10 µM): > 10 µM
viability, T/C [1]: 109%
viability, T/C [2]: 104%
viability, T/C [3]: 101%
viability, T/C [4]: 97.9%
viability, T/C [5]: 95.3%
viability, T/C [6]: 80.7%
viability, T/C [7]: 107%
viability, T/C [8]: 97.3%
viability, T/C [9]: 107%
viability, T/C [10]: 101%
viability, T/C [11]: 104%
viability, T/C [12]: 98.6%
viability, T/C [13]: 116%
viability, T/C [14]: 98.9%
viability, T/C [15]: 104%
viability, T/C [16]: 106%
viability, T/C [17]: 103%
viability, T/C [18]: 94%
viability, T/C [19]: 104%
viability, T/C [20]: 104%
viability, T/C [21]: 103%
viability, T/C [22]: 90.4%
viability, T/C [23]: 98%
viability, T/C [24]: 87.9%
viability, T/C [25]: 103%
viability, T/C [26]: 92.8%
viability, T/C [27]: 102%
viability, T/C [28]: 87.2%
viability, T/C [29]: 107%
viability, T/C [30]: 92.9%
viability, T/C [31]: 110%
viability, T/C [32]: 97.2%
viability, T/C [33]: 95.4%
viability, T/C [34]: 91.9%
viability, T/C [35]: 94.7%
viability, T/C [36]: 95.6%

O=C(c1cc(Cc2n[nH]c(=O)c3ccccc23)ccc1F)N1CCN(C(=O)C2CC2)CC1 + COC1C(OC(N)=O)C(O)C(Oc2ccc3c(O)c(NC(=O)c4ccc(O)c(CC=C(C)C)c4)c(=O)oc3c2C)OC1(C)C
IC50 (second compound 0.0316 µM): > 10 µM
IC50 (second compound 0.1 µM): > 10 µM
IC50 (second compound 0.316 µM): > 10 µM
IC50 (second compound 1 µM): > 10 µM
IC50 (second compound 3.16 µM): > 10 µM
IC50 (second compound 10 µM): > 10 µM
viability, T/C [1]: 106%
viability, T/C [2]: 98%
viability, T/C [3]: 103%
viability, T/C [4]: 99.1%
viability, T/C [5]: 72.5%
viability, T/C [6]: 62.9%
viability, T/C [7]: 91%
viability, T/C [8]: 88.5%
viability, T/C [9]: 88.9%
viability, T/C [10]: 97.4%
viability, T/C [11]: 81.6%
viability, T/C [12]: 63%
viability, T/C [13]: 96.1%
viability, T/C [14]: 87.6%
viability, T/C [15]: 100%
viability, T/C [16]: 92.3%
viability, T/C [17]: 78%
viability, T/C [18]: 70.3%
viability, T/C [19]: 97.4%
viability, T/C [20]: 85.5%
viability, T/C [21]: 109%
viability, T/C [22]: 91.9%
viability, T/C [23]: 96.1%
viability, T/C [24]: 63.5%
viability, T/C [25]: 91.2%
viability, T/C [26]: 87.8%
viability, T/C [27]: 95.8%
viability, T/C [28]: 89%
viability, T/C [29]: 79.1%
viability, T/C [30]: 65.3%
viability, T/C [31]: 94%
viability, T/C [32]: 91.6%
viability, T/C [33]: 94.8%
viability, T/C [34]: 73.3%
viability, T/C [35]: 98.7%
viability, T/C [36]: 74.5%
